Where two headings read alike, the source gives them in different places. Where a SMILES comes first, the peptide text is derived from it. Bridges are numbered along the chain shown (N, C = ends). [ ]: non-standard residue; d: D form. The star is where a group is joined. X1 = O=C(O)CCCCCCCCCCCCCCCCC(=O)N[C@@H](CCC(=O)NCCOCCOCCOCCOCCOCCOCCOCCOCCOCCOCCOCCn1cc(C*)nn1)C(=O)O; Phe(4-COOH) = N[C@@H](Cc1ccc(C(=O)O)cc1)C(=O)O; Bip = N[C@@H](Cc1ccc(-c2ccccc2)cc1)C(=O)O; Phe(3-Me) = Cc1cccc(C[C@H](N)C(=O)O)c1; Cha = N[C@@H](CC1CCCCC1)C(=O)O; Carboxymethyl = O=C(O)C*; Nle = CCCC[C@H](N)C(=O)O; Orn = NCCC[C@H](N)C(=O)O; Dab = NCC[C@H](N)C(=O)O; Dap = NC[C@H](N)C(=O)O; AEEA = NCCOCCOCC(=O)O
Molecular target: T1, human PD-1 (Jurkat-PD-1 cells; binding of PE-labeled human PD-L1-Ig) (Homo sapiens, UniProt Q15116)
T1 construct: expressed in transfected cells; host or cells: Jurkat (Jurkat-PD-1 / Jurkat-hPD-1)
T1 sequence (Q15116 25-288): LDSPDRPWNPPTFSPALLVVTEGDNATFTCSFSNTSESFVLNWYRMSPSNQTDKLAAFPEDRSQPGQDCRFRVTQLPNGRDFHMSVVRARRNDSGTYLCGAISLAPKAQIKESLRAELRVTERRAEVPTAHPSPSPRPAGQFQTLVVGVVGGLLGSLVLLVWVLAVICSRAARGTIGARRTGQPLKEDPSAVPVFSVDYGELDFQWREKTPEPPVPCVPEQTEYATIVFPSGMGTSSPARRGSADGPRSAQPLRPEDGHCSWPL
Test: Jurkat-PD-1 Cell Binding High-Content Screening Assay

[1] = Jurkat cell line over-expressing human PD-1, compound 2 h at 37° C., then PE-labeled PD-L1-Ig 20 nM final, 1 hour, read-out: Jurkat hPD1 PDL1 IC50

For CCCC[C@@H]1NC(=O)CSC[C@@H](C(=O)N[C@@H](CCN)C(N)=O)NC(=O)[C@H](CCC(=O)O)NC(=O)[C@H](C(C)C)NC(=O)[C@H](CC2CCCCC2)NC(=O)[C@H](CCN)NC(=O)[C@@H](CC(C)C)NC(=O)[C@H](CCCN)NC(=O)[C@H](Cc2ccc(OCc3cn(CCOCCOCCOCCOCCOCCOCCOCCOCCOCCOCCOCCNC(=O)CC[C@H](NC(=O)CCCCCCCCCCCCCCCCC(=O)O)C(=O)O)nn3)cc2)NC(=O)[C@H](Cc2ccc(-c3ccccc3)cc2)NC(=O)[C@H](Cc2ccc(C(=O)O)cc2)NC(=O)[C@H](Cc2cccc(C)c2)NC(=O)[C@H](CC(=O)O)NC(=O)[C@H](Cc2ccc(C(=O)O)cc2)NC1=O [Compound 1028] ({CH2CO}-[Nle][Phe(4-COOH)]D[Phe(3-Me)][Phe(4-COOH)][Bip]Y(X1)[Orn][dL][Dab][Cha]VEC[Dab]-NH2; thioether N-14), the IC50 was 430 nM.

Work on Cc1cccc(C[C@@H]2NC(=O)[C@H](CC(=O)O)NC(=O)[C@H](Cc3ccc(OCC(=O)O)cc3)NC(=O)[C@H](CN)NC(=O)CSC[C@@H](C(=O)N[C@@H](CCN)C(=O)NCCOCCOCC(N)=O)NC(=O)[C@H]([C@@H](C)O)NC(=O)[C@H](C(C)C)NC(=O)[C@H](CC3CCCCC3)NC(=O)[C@H](CCN)NC(=O)[C@@H](CC(C)C)NC(=O)[C@H](CCCN)NC(=O)[C@H](COCc3cn(CCOCCOCCOCCOCCOCCOCCOCCOCCOCCOCCOCCNC(=O)CC[C@H](NC(=O)CCCCCCCCCCCCCCCCC(=O)O)C(=O)O)nn3)NC(=O)[C@H](Cc3ccc(-c4ccccc4)cc3)NC(=O)[C@H](Cc3ccc(OCC(=O)O)cc3)NC2=O)c1 [Compound 1042] ({CH2CO}-[Dap]Y(Carboxymethyl)D[Phe(3-Me)]Y(Carboxymethyl)[Bip]S(X1)[Orn][dL][Dab][Cha]VTC[Dab][AEEA]-NH2; thioether N-14) yielded an IC50 [1] of 220 nM.

Work on Cc1cccc(C[C@@H]2NC(=O)[C@H](CC(=O)O)NC(=O)[C@H](Cc3ccc(OCC(=O)O)cc3)NC(=O)[C@H](Cc3c[nH]cn3)NC(=O)CSC[C@@H](C(=O)N[C@@H](CCN)C(N)=O)NC(=O)[C@H](Cc3ccc(OCc4cn(CCOCCOCCOCCOCCOCCOCCOCCOCCOCCOCCOCCNC(=O)CC[C@H](NC(=O)CCCCCCCCCCCCCCCCC(=O)O)C(=O)O)nn4)cc3)NC(=O)[C@H](C(C)C)NC(=O)[C@H](CC3CCCCC3)NC(=O)[C@H](CCN)NC(=O)[C@@H](CC(C)C)NC(=O)[C@H](CCCN)NC(=O)[C@H](Cc3ccc(OCC(=O)O)cc3)NC(=O)[C@H](Cc3ccc(-c4ccccc4)cc3)NC(=O)[C@H](Cc3ccc(OCC(=O)O)cc3)NC2=O)c1 [Compound 1015] ({CH2CO}-HY(Carboxymethyl)D[Phe(3-Me)]Y(Carboxymethyl)[Bip]Y(Carboxymethyl)[Orn][dL][Dab][Cha]VY(X1)C[Dab]-NH2; thioether N-14) yielded an IC50 [1] of 100 nM.

Compound CCCC[C@@H]1NC(=O)CSC[C@@H](C(=O)N[C@@H](CCN)C(N)=O)NC(=O)[C@H](CCC(=O)O)NC(=O)[C@H](C(C)C)NC(=O)[C@H](CC2CCCCC2)NC(=O)[C@H](CCN)NC(=O)[C@@H](CC(C)C)NC(=O)[C@H](CCCN)NC(=O)[C@H](Cc2ccc(OCc3cn(CCOCCOCCOCCOCCOCCOCCOCCOCCOCCOCCOCCNC(=O)CC[C@H](NC(=O)CCCCCCCCCCCCCCCCC(=O)O)C(=O)O)nn3)cc2)NC(=O)[C@H](Cc2ccc(-c3ccccc3)cc2)NC(=O)[C@H](Cc2ccc(OCC(=O)O)cc2)NC(=O)[C@H](Cc2cccc(C)c2)NC(=O)[C@H](CC(=O)O)NC(=O)[C@H](Cc2ccc(OCC(=O)O)cc2)NC1=O [Compound 1024] ({CH2CO}-[Nle]Y(Carboxymethyl)D[Phe(3-Me)]Y(Carboxymethyl)[Bip]Y(X1)[Orn][dL][Dab][Cha]VEC[Dab]-NH2; thioether N-14) has an IC50 [1] of 400 nM.

Cc1cccc(C[C@@H]2NC(=O)[C@H](CC(=O)O)NC(=O)[C@H](Cc3ccc(OCC(=O)O)cc3)NC(=O)[C@H](Cc3c[nH]cn3)NC(=O)CSC[C@@H](C(=O)N[C@@H](CCN)C(N)=O)NC(=O)[C@H](CCC(=O)O)NC(=O)[C@H](C(C)C)NC(=O)[C@H](CC3CCCCC3)NC(=O)[C@H](CCN)NC(=O)[C@@H](CC(C)C)NC(=O)[C@H](CCCN)NC(=O)[C@H](Cc3ccc(OCC(=O)O)cc3)NC(=O)[C@H](Cc3ccc(-c4ccccc4)cc3)NC(=O)[C@H](Cc3ccc(OCc4cn(CCOCCOCCOCCOCCOCCOCCOCCOCCOCCOCCOCCNC(=O)CC[C@H](NC(=O)CCCCCCCCCCCCCCCCC(=O)O)C(=O)O)nn4)cc3)NC2=O)c1 [Compound 1006] ({CH2CO}-HY(Carboxymethyl)D[Phe(3-Me)]Y(X1)[Bip]Y(Carboxymethyl)[Orn][dL][Dab][Cha]VEC[Dab]-NH2; thioether N-14) gave an IC50 [1] of 55 nM.
